Patent US20120289566A1, “COMBINATIONS OF FESOTERODINE AND SALIVARY STIMULANTS FOR THE TREATMENT OF OVERACTIVE BLADDER” (THERAVIDA, INC., priority 2011, published 2012)

What was measured:
saliva flow = assay: Case study: stimulated saliva output (Parafilm chewing, 2 min) after Toviaz and pilocarpine in a single individual; format: in vivo, human; details: after the administration of 8 mg Toviaz
Protocol: In this study, the effect of fesoterodine (Toviaz®), pilocarpine, the combination of the two, and placebo was measured in separate, yet identical, studies in a single individual.
The following protocol was for a pilot human study to evaluate the extent of saliva flow rate following the administration of 8 mg Toviaz® capsule and 5 or 7.5 mg pilocarpine HCl tablet after about 2.5 hrs from fesoterodine administration. The subject was a healthy, person. The subject performed the following: • 1. Fast the night before. • 2. No coffee or soda 8 hrs prior to taking the first dose. • 3. Record time voiding and measure urine if possible. • 4. Record extent of dryness of the mouth (Very dry, dry, and not dry). • 5. Record any adverse event. • 6. Chew a 1″×1″ piece of Parafilm (American National Can (Neenah, Wis. 54956) Bar code No. 7-466676999) over 2 minutes. • 7. Collect wetted Parafilm and saliva into a tared container (pre-weighed container). • 8. Measure the amount of saliva collected. • 9. Plot Saliva collected per 2 min time intervals against time.
The subject fasted overnight, but had 240 mL of water 1 hr prior to dose. The water continued ad lib until 1 hr pre and 1 hr post dose, other than 120 mL with Toviaz® and 120 mL with 5 mg Salagen® tablet. For lunch, the subject consumed a light sandwich. No coffee, soda, or caffeinated or alcoholic beverages was consumed.

saliva output = details: 5 mg of pilocarpine; cited from earlier work

Compound: CC[C@@H]1C(=O)OC[C@@H]1Cc1cncn1C [pilocarpine]
- time of pilocarpine administration after Toviaz at which best results are obtained (saliva flow): 2.3 to 2.5 h
- time of maximum saliva output after administration (saliva output): about 30 minutes
